Read-outs that look alike come from different tables or passages of the source.
Key:
[1] = test system: Saccharomyces cerevisiae X2180-1A; experiment: Fungicidal bioassay (MIC), Saccharomyces cerevisiae; format: cell-based; conditions: for MIC: Saccharomyces cerevisiae, X21801A, 48 hrs growth, CLSI
Method: (§1) Bacteria, plasmids and growth conditions. Bacterial strains, plasmids and primers used in this study are described in Table 3 and 4. General chemical and molecular biology reagents were purchased from Sigma-Aldrich or New England Biolabs. Phosphinothricin (glufosinate) was purchased from GoldBio (CAS #77182-82-2). Standard bacterial growth media were prepared as described (Current Protocols in Molecular Biology 2019, 125:e81, e82, e83). E. coli strains were typically grown at 37° C.; P. ananatis strains were typically grown at 30° C. Phosphonate induction media (PIM) was prepared as follows: 8.37 g/L MOPS, 0.72 g/L Tricine, 0.58 g/L NaCl, 0.51 g/L NH4Cl, 1.6 g/L KOH, 0.1 g/L MgCl2·6H2O, 0.05 g/L K2SO4, 0.2 g/L K2HIPO4 were dissolved H2O and steam sterilized for 20 min at 121° C. After cooling, 1× sterile trace element solution was added (1000× stock: 1.5 g/L nitrilotriacetic acid trisodium salt, 0.8 g/L Fe(NH4)2(SO4)2·7H2O, 0.2 g/L Na2SeO3, 0.1 g/L CoCl2·6H2O, 0.1 g/L MnSO4·H2O, 0.1 g/L Na2MoO4·2H2O, 0.1 g/L Na2WO4·2H2O, 0.1 g/L ZnSO4·7H2O, 0.1 g/L NiCl2·6H2O, 0.01 g/L H3BO3, 0.01 g/L CuSO4·5H2O) followed by addition of 1% (v/v) sterile glycerol and 50 μg/mL sterile kanamycin. For culturing of Candida and Saccharomyces strains, Rosewell Park Memorial Institute 1640 medium (RPMI; Sigma-Aldrich R6504) was used for liquid culturing and Sabouraud Dextrose Agar (SDA; Difco™ 210950) for solid plating unless otherwise specified. For Aspergillus strains, Rosewell Park Memorial Institute 1640 medium (RPMI) was used for liquid culturing and Potato Dextrose Agar (PDA; Difco™ 213400) was used for solid plating unless otherwise specified. YMM medium (6.7 g/L yeast nitrogen base without amino acids [BD Difco™ 291940], 20 g/L glucose, 1× trace element solution) was used as minimal media for fungal strains.
(§2) Fungicidal bioassays. […] Minimum Inhibitory Concentration (MIC) was determined visually by finding the concentration of compound at which there was no visual difference between that concentration and the uninoculated media control.

[2] = test system: T98G (glioblastoma); experiment: Cytotoxicity profiling (Alamar Blue), T98G; format: cell-based, human
Method: FIG. 8. Cytotoxicity of pantaphos across various cancer cell lines. Assays were conducted as described (mBio. 2021 Feb. 2; 12(1):e03402-20), using the Alamar Blue method with 72-hour treatment using Raptinal ([…]) as Dead cell control; n=3. Cell seeding densities: CT26 (colon carcinoma) 2000 c/w; HOS (osteosarcoma) 2500 c/w; ES-2 (ovarian carcinoma), HCT-116 (colorectal carcinoma), A-549 (lung carcinoma), A-172 (glioblastoma), D54 (glioblastoma), U87 (glioblastoma), T98G (glioblastoma), SK-ML-28 (melanoma), MCF-7 (breast cancer), AM38 (glioblastoma) and MDA-MB-231 (breast cancer) 3000 c/w; U118MG (malignant glioma) 4000 c/w; HepG2 (liver cancer) 8000 c/w. c/w=cells per well. […]
Cell culture cytotoxicity screening. The compounds were evaluated for their ability to kill cancer cell lines in culture, using HOS (osteosarcoma); ES-2 (ovarian cancer); HCT 116 (colon cancer); A549 (lung carcinoma); and A172 (glioma) cells. Human skin fibroblast cells (HFF-1) were also assessed. […] 72 hours post-treatment, cell viability was assessed using the Alamar Blue method (http://www.bio-rad-antibodies.com/measuring-cytotoxicity-proliferation-spectrophotometry-fluorescence-alamarBlue.html). […] Conversion of Alamar Blue was measured with a plate reader (SpectraMax M3; Molecular Devices) by fluorescence (excitation wavelength: 555 nm; emission wavelength: 585 nm; cutoff 570 nm; autogain). […]

[3] = test system: human cell lines; experiment: Cytotoxicity profiling against a panel of human cell lines; format: cell-based; conditions: human cell lines of Table 2, with the exception of ES-2; read-out: IC50 levels, range for each of the cell lines tested
Method: (§3) Cell culture cytotoxicity screening. The compounds were evaluated for their ability to kill cancer cell lines in culture, using HOS (osteosarcoma); ES-2 (ovarian cancer); HCT 116 (colon cancer); A549 (lung carcinoma); and A172 (glioma) cells. Human skin fibroblast cells (HFF-1) were also assessed. Cells were seeded (3000 cells well^−1 for ES-2, HCT 116, A549 and A172; 4000 cells well^−1 for HFF-1 and 2500 cells well^−1 for HOS) in a 96-well plate and allowed to attach overnight. Cells were treated with pantaphos in water. The concentrations of the tested compounds were 5 nM to 100 μM (1% water final; 100 μl well^−1). Raptinal (50 μM) was used as a dead control. On each plate, five technical replicates per compound were performed. 72 hours post-treatment, cell viability was assessed using the Alamar Blue method (http://www.bio-rad-antibodies.com/measuring-cytotoxicity-proliferation-spectrophotometry-fluorescence-alamarBlue.html). Alamar Blue solution (10 μl of 440 μM resazurin in sterile 1×PBS) was added to each well, and the plate was incubated for 3-4 hrs. Conversion of Alamar Blue was measured with a plate reader (SpectraMax M3; Molecular Devices) by fluorescence (excitation wavelength: 555 nm; emission wavelength: 585 nm; cutoff 570 nm; autogain). Percentage death was determined by normalizing to water-treated cells and Raptinal-treated cells. […]

[4] = test system: AM38 (glioblastoma); experiment: Cytotoxicity profiling (Alamar Blue), AM38; format: cell-based, human
Method: FIG. 8. Cytotoxicity of pantaphos across various cancer cell lines. Assays were conducted as described (mBio. 2021 Feb. 2; 12(1):e03402-20), using the Alamar Blue method with 72-hour treatment using Raptinal ([…]) as Dead cell control; n=3. Cell seeding densities: CT26 (colon carcinoma) 2000 c/w; HOS (osteosarcoma) 2500 c/w; ES-2 (ovarian carcinoma), HCT-116 (colorectal carcinoma), A-549 (lung carcinoma), A-172 (glioblastoma), D54 (glioblastoma), U87 (glioblastoma), T98G (glioblastoma), SK-ML-28 (melanoma), MCF-7 (breast cancer), AM38 (glioblastoma) and MDA-MB-231 (breast cancer) 3000 c/w; U118MG (malignant glioma) 4000 c/w; HepG2 (liver cancer) 8000 c/w. c/w=cells per well. IC50 and Emax values shown in Table 6 were extracted from the raw data plotted in FIG. 8.
as §3, with “Alamar Blue solution (10 μl of 440 μM resazurin in sterile 1×PBS) was added to each well, and the plate was incubated for 3-4 hrs.” left out

[5] = test system: Aspergillus fumigatus 1163; experiment: Fungicidal bioassay (MIC), Aspergillus fumigatus; format: cell-based; conditions: for MIC: Aspergillus fumigatus, 1163, 48 hrs growth, CLSI
Method: as §1, §2

[6] = M9 minimal medium, read-out: MIC, Minimal medium
[7] = RPMI 1640 medium, read-out: MIC, Rich medium

In the case of `O=C(O)/C=C(\C(=O)O)C(O)P(=O)(O)O` (stereo not drawn) [pantaphos, 2-(hydroxy(phosphono)methyl)maleate], the MIC [1, 6] is reported as > 62.5 µM, the MIC [1, 7] is reported as > 125 µM and the “effect on the growth of fungi, in words” value ([1]; rich or minimal media) is reported as “no effect on the growth”. For the same compound, the IC50 ([2]; Homo sapiens, T98G, Alamar Blue, 72-hour treatment (Table 6)) was > 100 µM, the “sensitivity of the cell line to pantaphos, in words” value ([2]; glioblastoma cell line printed as TG98) was “resistant” and the IC50 [3] was 6 to 37 µM. For the same compound, the “sensitivity of the cell line to the compound, in words” value ([4]; AM38) was “sensitive”, the Emax ([4]; Homo sapiens, AM-38, AM38, Alamar Blue, 72-hour treatment) was 74 to 78% and the IC50 ([4]; Homo sapiens, AM-38, AM38, Alamar Blue, 72-hour treatment (Table 6)) was 3.97 ± 1.01 µM. The MIC [5, 6] was > 125 µM, the MIC [5, 7] was > 125 µM and the “effect on the growth of fungi, in words” value ([5]; rich or minimal media) was “no effect on the growth”.
